The target in experiment [1] is T1, human ABCB10 (Homo sapiens, UniProt Q9NRK6).
T1 sequence (Q9NRK6 152-738): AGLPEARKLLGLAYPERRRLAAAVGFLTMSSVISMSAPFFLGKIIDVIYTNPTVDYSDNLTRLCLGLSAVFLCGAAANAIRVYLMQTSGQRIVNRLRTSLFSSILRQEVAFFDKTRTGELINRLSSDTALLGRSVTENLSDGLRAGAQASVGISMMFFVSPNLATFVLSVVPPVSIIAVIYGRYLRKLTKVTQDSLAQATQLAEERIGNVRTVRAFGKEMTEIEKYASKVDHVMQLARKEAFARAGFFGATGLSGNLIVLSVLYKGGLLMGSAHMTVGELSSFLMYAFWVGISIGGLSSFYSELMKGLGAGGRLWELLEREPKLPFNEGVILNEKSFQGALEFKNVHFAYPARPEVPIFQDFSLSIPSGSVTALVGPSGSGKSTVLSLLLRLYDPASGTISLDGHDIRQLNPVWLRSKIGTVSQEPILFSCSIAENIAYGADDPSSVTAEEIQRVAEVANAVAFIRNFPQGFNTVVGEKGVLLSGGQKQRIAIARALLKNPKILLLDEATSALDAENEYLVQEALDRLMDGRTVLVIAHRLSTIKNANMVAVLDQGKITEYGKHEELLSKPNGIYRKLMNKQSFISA
Kind of experiment: ATPase activity, malachite green phosphate assay. In kind it is biochemical.

In experiment [2] the target is T1, human ABCB10. Particulars: 0.3 μM protein, 0-2000 μM ATP, 5 mM MgCl2, 37 °C, no added lipid.

Here are results for two compounds from paper PMC10634319 (Biochemistry, 2023).

Broadly, the IC50 is the concentration that inhibits the measured activity by half. A lower IC50 goes with greater potency.

As to `CCCCCCCC/C=C\CCCCCCCC(=O)OC[C@H](COP(=O)(O)OCC(O)COP(=O)(O)OC[C@@H](COC(=O)CCCCCCC/C=C\CCCCCCCC)OC(=O)CCCCCCC/C=C\CCCCCCCC)OC(=O)CCCCCCC/C=C\CCCCCCCC` (some centres unmarked) [TOCDL, 1,1′,2,2′-tetraoleoyl-cardiolipin], at human ABCB10 [1], the concentration for half-maximal inhibition (IC50) is ~10 µM. Take `Nc1ncnc2c1ncn2[C@@H]1O[C@H](COP(=O)(O)OP(=O)(O)OP(=O)(O)O)[C@@H](O)[C@H]1O` [ATP]: on human ABCB10 [2], the KM result was “Michaelis–Menten equation was fitted to the initial rates to determine the Michaelis constant (KM)”.
